Experiments:
[1] = system: protein p140; test: Effects of various test compounds on p140 phosphorylation in rat L6 cells; assay type: cell-based; design: dose or concentration left out as unconfirmed
Description: Rat L6 cells (1×10^5 cells/dish) were incubated in the Dulbecco's modified Eagle's medium (containing 10% BFS) at 37° C. under 5% CO2 atmosphere for 8 days. The cells used were skeletal muscle myoblast-differentiated muscle cells. After treating the differentiated skeletal muscle cells in serum-free Dulbecco's modified Eagle's media for 4 hr, various test compounds (10 mM; except insulin,1 mM) were added before the cultures were further incubated for a fixed interval. After the cultures were rinsed with ice-cold phosphate buffer, cells were lysed with phosphate buffer containing 0.5% octa (ethylene glycol) ether (C12E8). The pp140 was recovered by cephalobeads bound with phosphotyrosine antibody (Transformation Corp.) prior to elution and detection with phenyl phosphate and western blotting method, respectively. The band content of pp140 was determined by a densitometer using purified pp140 as the standard.

[2] = system: Rat L6 cells; test: Enhancement activity on glucose uptake (3H-2-deoxyglucose) in rat L6 cells; assay type: cell-based; details: 2 hr, 5 mM 3H-2-deoxyglucose, initial 3 min
Description: Rat L6 cells (1×10^5 cells/dish) were incubated in Dulbecco's modified Eagle's medium (containing 10% BFS) at 37° C. under 5% C02 atmosphere for 8 days. The cells used were skeletal muscle myoblast-differentiated skeletal muscle cells. After treating the differentiated skeletal muscle cells in serum-free Dulbecco's modified Eagle's medium for 2 hr, various test compounds (10 mM; except insulin,l mM) were added before the cultures were further incubated for a fixed interval of 2 hr. Cultures thereafter treated with Crebs-Ringer phosphate buffer (pH: 7.4) for 20 min were further incubated with 5 mM ^3H-2-deoxyglucose (0.05 mCi/ml). At the initial 3 min after incubation, the uptake radioactivity content in cells was determined with a liquid syntillation counter.

[3] = system: streptozotocin (STZ)-induced diabetic rats; test: Effects of vitamin K5 on diabetes in streptozotocin (STZ) rats; assay type: in vivo, rat; details: vitamin K5 i.p. once daily for 3 consecutive days
Description: The diabetes model using streptozotocin (STZ) was established in male Wistar rats (STZ rats). After administering various intraperitoneal (i.p.) daily doses of vitamin K5 for 3 consecutive days in STZ rats (one administration per day), the glucose, neutral fat and cholesterol contents in blood were determined. Accordingly, STZ and normal rats were administered with the vehicle (physiological saline) at identical daily rate and duration prior to determination of similar hematic indices mentioned above. In addition, rats administered subcutaneously (s.c.) with insulin (8 U/kg) daily (one administration per day) for 3 consecutive days were used as positive controls.

[4] = system: protein p140; test: Tyrosine phosphorylation of p140 in rat L6 cells (anti-phosphotyrosine recovery, western blot, densitometry); assay type: cell-based; details: for p140 tyrosine phosphorylation (band content of pp140): rat L6 cells, amylin 100 pM 24 hr before insulin where added
Description: (§1) Using the Dubecco's modified Eagle's medium (containing 10% BFS), various cells (1×10^5 cells/dish) were incubated at 37° C. under 5% CO2 atmosphere for 5˜8 days. The cells were skeletal muscle cells differentiated from skeletal muscle myoblasts. The differentiated cells previously treated in serum-free Dulbecco's modified Eagle's medium for 4 hr was incubated with and without amylin (100 pM) before further incubation for 24 hr. Cultures treated with insulin (100 nM) thereafter were incubated for a fixed interval (10 or 60 min). After the cultures were rinsed with ice-cold phosphate buffer, cells were lysed with phosphate buffer containing 0.5% octa (ethylene glycol) ether (C12E8). The pp140 was recovered by sepharobeads bound with phosphothyrosine antibody (Transformation Corp.) prior to elution and detection with phenyl phosphate and western blotting method, respectively. The band content of pp140 was determined by a densitometer using purified pp140 as the standard. In the Table 1, cultures were treated with amylin (100 pM) 24 hr before insulin (100 nM) was added.

[5] = system: protein p140; test: Tyrosine phosphorylation of p140 in rat FaO hepatocytes; assay type: cell-based; details: for p140 tyrosine phosphorylation (band content of pp140): rat FaO cells, amylin 100 pM 24 hr before insulin where added
Description: as §1

[6] = system: protein p140; test: Tyrosine phosphorylation of p140 in human A673 muscle cells; assay type: cell-based; details: for p140 tyrosine phosphorylation (band content of pp140): human A 678 cells, amylin 100 pM 24 hr before insulin where added
Description: as §1

[7] = system: protein p140; test: Tyrosine phosphorylation of p140 in human HepG2 hepatocytes; assay type: cell-based; details: for p140 tyrosine phosphorylation (band content of pp140): human HepG2 cells, amylin 100 pM 24 hr before insulin where added
[8] = system: healthy rats; test: Amylin administration to healthy rats for 7 days; assay type: in vivo, rat; details: amylin 0.1 mg/kg, i.p., t.i.d.
Excerpt: (§2) These observations were accompanied by decreases in both incidences, glucose transporter 4 (Glut 4) quantity and synthesized glycogen content (less than 50% decrease compared to that of control group) with 1.7-fold increase in the blood glucose content.

[9] = system: L6 cells; test: Glucose uptake in L6 cells with amylin administration; assay type: cell-based; details: L6 cells of rat skeletal muscle myoblasts
Excerpt: as §2

| Molecule | Amount of tyrosine phosphorylated p140 ([1]; 0 min) | Amount of tyrosine phosphorylated p140 ([1]; 3 min) | Amount of tyrosine phosphorylated p140 ([1]; 10 min) | Amount of tyrosine phosphorylated p140 ([1]; 60 min) | Activity on glucose uptake [2] | further results |
| --- | --- | --- | --- | --- | --- | --- |
| CC(C)CCOc1ccc(C=C2SC(=S)NC2=O)cc1 [5-(4-isoamyloxybenzylidene)rhodanine] | 400 copy/cell | 3200 copy/cell | 2250 copy/cell | 1600 copy/cell | 98.4 pmol/mg protein/min |  |
| O=C1NC(=S)SC1c1ccccc1 (stereo not shown) [5-phenylrhodanine] | 350 copy/cell | 1600 copy/cell | 1250 copy/cell | 650 copy/cell | 76.8 pmol/mg protein/min |  |
| CC1=CC(=O)c2ccccc2C1=O [Vitamin K3, 2-methyl-1,4-naphthoquinone] | 350 copy/cell | 3650 copy/cell | 1800 copy/cell | 750 copy/cell | 60.9 pmol/mg protein/min |  |
| Cc1cc(N)c2ccccc2c1O [Vitamin K5, 4-amino-2-methyl-1-naphthol] | 400 copy/cell | 3850 copy/cell | 2850 copy/cell | 1600 copy/cell | 67.5 pmol/mg protein/min | cholesterol content in blood [3]: elicited recovery of changes; glucose content in blood [3]: elicited recovery of changes; neutral fat content in blood [3]: elicited recovery of changes |
| Insulin | 350 copy/cell | 1850 copy/cell | 2600 copy/cell | 1650 copy/cell | 106.8 pmol/mg protein/min | p140 tyrosine phosphorylation (band content of pp140) ([4]; insulin 100 nM for 10 min): 2400; p140 tyrosine phosphorylation (band content of pp140) ([4]; insulin 100 nM for 60 min): 1000; p140 tyrosine phosphorylation (band content of pp140) ([5]; insulin 100 nM for 10 min): 2000; p140 tyrosine phosphorylation (band content of pp140) ([5]; insulin 100 nM for 60 min): 1400; p140 tyrosine phosphorylation (band content of pp140) ([6]; insulin 100 nM for 10 min): 2500; p140 tyrosine phosphorylation (band content of pp140) ([6]; insulin 100 nM for 60 min): 1900; p140 tyrosine phosphorylation (band content of pp140) ([7]; insulin 100 nM for 10 min): 2100; p140 tyrosine phosphorylation (band content of pp140) ([7]; insulin 100 nM for 60 min): 1200 |
| amylin |  |  |  |  |  | Effect on insulin-induced incidence of pp140 ([4]; rat L6 cells incubated with insulin within 10 min): antagonized; Effect on insulin-induced incidence of pp140 ([5]; rat hepatocytes, FaO cells): similarly confirmed; Effect on insulin-induced incidence of pp140 ([6]; human muscle cells (A673 cells)): similarly confirmed; Effect on insulin-induced incidence of pp140 ([7]; human hepatocytes (HepG2 cells)): similarly confirmed; glucose transporter 4 (Glut 4) quantity [8]: decreases; increase in the blood glucose content [8]: 1.7 fold; insulin receptor population [8]: dramatic decreases; secreted insulin quantity [8]: dramatic decreases; synthesized glycogen content, decrease compared to control group [8]: less than 50%; glucose uptake in the cells [9]: decreased glucose uptake |

— patent US6432913B1, “Polypeptide of protein p140 and DNAs encoding it” (Ono Pharmaceutical Co., Ltd., priority 1993, dated 2002)
